The values that follow come from patent US20230043863A1, “HETEROAROMATIC DERIVATIVES FOR USE AS REGULATOR, PREPARATION METHOD THEREFOR AND USE THEREOF” (JIANGSU HANSOH PHARMACEUTICAL GROUP CO., LTD., priority 2018, published 2023).

The experiment has as its system C57BL/6 mouse colitis model induced by DSS. Briefly: C57BL/6 mouse colitis model induced by DSS, daily disease index. In kind it is in vivo. The note with it: po, 216 h, 10 mg/kg p.o. BID, Day 0-9, vs vehicle group, read-out: reduction ratio of DAI AUC. As to the method:
To evaluate the drug efficacy of the embodiment compound on the C57BL/6 mouse colitis model induced by DSS (dextran sulfate sodium).
According to the weight of the animal, BioBook software was used to randomly group the animals on day −1 to ensure that the weight values of each group of animals were similar to reduce deviation, and the grouping and dosing regimen are shown in the following Table.
Drinking water containing DSS: an appropriate amount of DSS powder was dissolved in the autoclaved drinking water to prepare a 2% DSS solution.
On day −1, the animals were equally divided into 12 groups with 10 animals in each group. (Refer to Table 1 for specific grouping scheme)
From 9:00 on day 0 to 9:00 on day 6, the mice in groups 2 to 9 were given 2% DSS aqueous solution for 6 days (from day 0 to day 6), after which the mice were allowed to freely drink normal water for 3 days (from 9:00 on day 6 to before necropsy on day 9). The day of modeling was counted as day 0. The DSS aqueous solution was wrapped in tin foil to protect it from light. The DSS aqueous solution was replaced every 2 days.
The mice in group 1 are allowed to drink normal water freely for 9 days (from 9:00 on day 0 to before necropsy on day 9).
The recording frequency was once a day, and 4 levels were rated according to the following standards:
Bloody stool (0: negative; 4: positive);
Stool score (0: normal; 2: loose stool; 4: diarrhea)
Daily Disease Index (DAI) was obtained by dividing the sum the scores of the above 3 parts by 3. DAI-time (day) curve based on the daily DAI score was plotted, and the peak area (AUC) under the curve was calculated. The reduction ratio of DAI AUC was calculated by comparing the administration group with the vehicle group, with a calculation formula of (DAI AUCadministration group-DAI AUCvehicle)/DAI AUCVehicle×100%
For the compound `Cc1cc(Nc2nc(N[C@@H]3C[C@H]4CC[C@@H](C3)N4CCC#N)nc3ccsc23)n[nH]1` [Embodiment 60, 3-((3-exo)-3-((4-((5-methyl-1H-pyrazol-3-yl)amino)thieno[3,2-d]pyrimidin-2-yl)amino)-8-azabicyclo[3.2.1]oct-8-yl)propionitrile], the change in vivo at 10 mg/kg was -20.8%.
The result for `Cc1cc(Nc2nc(N[C@@H]3C[C@H]4CCC[C@@H](C3)N4C(=O)CN3CCOCC3)nc3sccc23)n[nH]1` [Embodiment 246, 1-((3-exo)-3-((4-((5-methyl-1H-pyrazol-3-yl)amino)thieno[2,3-d]pyrimidin-2-yl)amino)-9-azabicyclo[3.3.1]non-9-yl)-2-morpholinoethane-1-one] reads -38.6%; that for `Cc1cc(Nc2nc(N[C@@H]3C[C@H]4CCC[C@@H](C3)N4C(=O)c3ccccn3)nc3sccc23)n[nH]1` [Embodiment 260, ((3-exo)-3-((4-((5-methyl-1H-pyrazol-3-yl)amino)thieno[2,3-d]pyrimidin-2-yl)amino)-9-azabicyclo[3.3.1]non-9-yl)(pyridin-2-yl)methanone], -23.4%.
The result for `CNCC(=O)N1[C@@H]2CCC[C@H]1C[C@H](Nc1nc(Nc3cc(C)[nH]n3)c3ccsc3n1)C2` [Embodiment 247, 1-((3-exo)-3-((4-((5-methyl-1H-pyrazol-3-yl)amino)thieno[2,3-d]pyrimidin-2-yl)amino)-9-azabicyclo[3.3.1]non-9-yl)-2-(methylamino)-ethane-1-one] reads -22.1%.
As for `Cc1cc(Nc2nc(N[C@@H]3C[C@H]4CC[C@@H](C3)N4S(=O)(=O)N3CC(C#N)C3)nc3cc(Cl)ccc23)n[nH]1` [Embodiment 214], the change in vivo at 10 mg/kg was -28.9%.
The result for `Cc1cc(Nc2nc(N[C@@H]3C[C@H]4CC[C@@H](C3)N4S(=O)(=O)N3CC(C#N)C3)nc3ccccc23)n[nH]1` [Embodiment 213, 1-(((3-exo)-3-((4-((5-methyl-1H-pyrazol-3-yl)amino)quinazolin-2-yl)amino)-8-azabicyclo[3.2.1]oct-8-yl)sulfonyl)azetindin-3-formonitrile] reads -24.4%; that for `Cc1cc(Nc2nc(N[C@@H]3C[C@H]4CCC[C@@H](C3)N4CCC#N)nc3scnc23)n[nH]1` [Embodiment 278, 3-((3-exo)-3-((7-((5-methyl-1H-pyrazol-3-yl)amino)thiazolo[5,4-d]pyrimidin-5-yl)amino)-9-azabicyclo[3.3.1]non-9-yl)propionitrile], -34.9%; that for `Cc1cc(Nc2nc(N[C@@H]3C[C@H]4CC[C@@H](C3)N4CCC#N)nc3cc(Br)ccc23)n[nH]1` [Embodiment 170, 3-((3-exo)-3-((7-bromine-4-((5-methyl-1H-pyrazol-3-yl)amino)quinazolin-2-yl)amino)-8-azabicyclo[3.2.1]oct-8-yl)propionitrile], -27.9%.
The result for `COc1ccc2c(Nc3cc(C)[nH]n3)nc(N[C@@H]3C[C@H]4CC[C@@H](C3)N4CCC#N)nc2c1` [Embodiment 169, 3-((3-exo)-3-((7-methoxyl-4-((5-methyl-1H-pyrazol-3-yl)amino)quinazolin-2-yl)amino)-8-azabicyclo[3.2.1]oct-8-yl)propionitrile] reads -34.3%.
